Test results: US11096985B2, “Antimicrobial peptides, their variants and uses” (priority 2015, dated 2021)
Where a SMILES comes first, the peptide text is derived from it. [ ]: non-standard residue; d: D form.

Columns and labels:
[1] = test system: clinical strains of Escherichia coli; test: MIC, clinical strains of E. coli; format: cell-based; set-up: unit: μg/ml; conditions: microdilution, Muller Hinton broth-cation adjusted, 0.02% BSA, 0.2% acetic acid
Description: (§1) Minimum inhibition concentrations (MICs) were determined against Escherichia coli (ATCC 25922), Staphylococcus aureus (ATCC 25923), Klebsiella pneumoniae (ATCC 10031) and Pseudomonas aeruginosa (ATCC 27853). Also clinical strains of E. coli, K. pneumoniae, E. cloacae, P. aeruginosa, Serratia marcescens, Proteus mirabilis, S. pneumoniae, Acinetobacter baumannii, A. johnsonii and S. aureus were used for MICs assays. Additionally, clinical strains of yeast including Candida albicans, C. glabrata, C. parapsilosis and C. quillermondiae were used. The susceptibility of these microorganisms to Chain peptides were determined using micro broth dilution assay. Colonies of the respective microorganism from Muller Hinton (MH) agar plates incubated overnight were suspended in MH broth media and final concentration of microorganism was adjusted to 5.0×10^5 cfu/ml. An aliquot of 10 μl of each Chain peptide, or gentamicin, tetracycline as reference antibiotics were added in differing concentrations along with 90 μl of bacterial suspension to 96 well polypropylene plates and incubated at 37° C. for 20 to 24 hours. Concentrations of Chain peptides and reference antibiotics ranged from 0.125 to 128 μg/ml and the MICs were recorded as the lowest concentration with no visual growth of bacteria. Similarly, antifungal MICs were tested in Potato dextrose broth.
(§2) Clinical strains of yeasts including Candida albicans, C. glabrata, C. parapsilosis and C. quillermondiae were also tested with the 12 Chain peptides. The minimum inhibitory concentration (MICs) varied between these peptides and are presented in Tables 4a, 4b, 4c and 5a, 5b, 5c. Peptides Chain 105, 201 and 308 are broad spectrum antimicrobials with MICs between 0.5-32 μg/ml against all the bacteria and yeasts tested, except Serratia marcescens and Proteus mirabilis, against which the MICs were between 64-128 μg/ml. Peptide Chain 306 has narrow spectrum activity against E.coli at 1 μg/ml and for the rest of the bacterial strains at >32 μg/ml (FIG. 10).

[2] = test system: clinical strains of Klebsiella pneumoniae; test: MIC, clinical strains of K. pneumoniae; format: cell-based; set-up: unit: μg/ml; conditions: microdilution, Muller Hinton broth-cation adjusted, 0.02% BSA, 0.2% acetic acid
Description: as §1, §2

[3] = test system: clinical strains of Pseudomonas aeruginosa; test: MIC, clinical strains of P. aeruginosa; format: cell-based; set-up: unit: μg/ml; conditions: microdilution, Muller Hinton broth-cation adjusted, 0.02% BSA, 0.2% acetic acid
Description: as §1, §2

[4] = test system: clinical strains of Serratia marcescens; test: MIC, clinical strains of Serratia marcescens; format: cell-based; set-up: unit: µg/mL; conditions: microdilution, Muller Hinton broth-cation adjusted, 0.02% BSA, 0.2% acetic acid
Description: as §1, §2

[5] = test system: clinical strains of Proteus mirabilis; test: MIC, clinical strains of Proteus mirabilis; format: cell-based; set-up: unit: µg/mL; conditions: microdilution, Muller Hinton broth-cation adjusted, 0.02% BSA, 0.2% acetic acid
Description: as §1, §2

[6] = test system: clinical strains of Enterobacter cloacae; test: MIC, clinical strains of Enterobacter cloacae; format: cell-based; set-up: unit: μg/ml; conditions: microdilution, Muller Hinton broth-cation adjusted, 0.02% BSA, 0.2% acetic acid
Description: as §1, §2

[7] = test system: clinical strains of Staphylococcus aureus; test: MIC, clinical strains of S. aureus; format: cell-based; set-up: unit: μg/ml; conditions: microdilution, Muller Hinton broth-cation adjusted, 0.02% BSA, 0.2% acetic acid
Description: as §1, §2

[8] = test system: clinical strains of Streptococcus pneumoniae; test: MIC, clinical strains of Streptococcus pneumoniae; format: cell-based; set-up: unit: µg/mL; conditions: microdilution, Muller Hinton broth-cation adjusted, 0.02% BSA, 0.2% acetic acid
Description: as §1, §2

[9] = test system: clinical strains of Candida albicans; test: MIC, clinical yeast strains, Candida albicans; format: cell-based; set-up: unit: μg/ml
Description: as §1, §2

[10] = test system: clinical strains of C. glabrata; test: MIC, clinical yeast strains, C. glabrata; format: cell-based, Candida glabrata; set-up: unit: μg/ml
Description: as §1, §2

[11] = test system: clinical strains of C. parapsilosis; test: MIC, clinical yeast strains, C. parapsilosis; format: cell-based, Candida parapsilosis; set-up: unit: μg/ml
Description: as §1, §2

[12] = test system: clinical strains of C. quillermondiae; test: MIC, clinical yeast strains, C. quillermondiae; format: cell-based; conditions: C. quillermondiae clinical yeast strain 1
Description: as §1, §2

CC[C@@H](C)[C@@H](N)C(=O)N[C@H](Cc1c[nH]c2ccccc12)C(=O)N[C@H](CCCCN)C(=O)N[C@H](CCCNC(=N)N)C(=O)N[C@H](Cc1ccccc1)C(=O)N[C@H](CCCNC(=N)N)C(=O)N[C@H](CC(C)C)C(=O)N[C@H](Cc1ccccc1)C(=O)N[C@H](CCCCN)C(=O)N[C@H](CCCCN)C(=O)N[C@H](Cc1c[nH]c2ccccc12)C(=O)O [Chain304D] (H-[dI][dW][dK][dR][dF][dR][dL][dF][dK][dK][dW]-OH)
Minimum inhibitory concentration ([1]; Escherichia coli clinical strain 1): 1 | Minimum inhibitory concentration ([1]; Escherichia coli clinical strain 2): 16 | Minimum inhibitory concentration ([1]; Escherichia coli clinical strain 3): 16 | Minimum inhibitory concentration ([1]; Escherichia coli clinical strain 4): 32 | Minimum inhibitory concentration ([1]; Escherichia coli clinical strain 5): 32 | Minimum inhibitory concentration ([2]; Klebsiella pneumoniae clinical strain 1): >128 | Minimum inhibitory concentration ([2]; Klebsiella pneumoniae clinical strain 2): >128 | Minimum inhibitory concentration ([2]; Klebsiella pneumoniae clinical strain 3): >128 | Minimum inhibitory concentration ([2]; Klebsiella pneumoniae clinical strain 4): >128 | Minimum inhibitory concentration ([2]; Klebsiella pneumoniae clinical strain 5): 64 | Minimum inhibitory concentration ([3]; Pseudomonas aeruginosa clinical strain 1): 32 | Minimum inhibitory concentration ([3]; Pseudomonas aeruginosa clinical strain 2): 64 | Minimum inhibitory concentration ([3]; Pseudomonas aeruginosa clinical strain 3): 64 | Minimum inhibitory concentration ([3]; Pseudomonas aeruginosa clinical strain 4): 64 | Minimum inhibitory concentration ([3]; Pseudomonas aeruginosa clinical strain 5): 16 | Minimum inhibitory concentration ([4]; Serratia marcescens clinical strain 1): >128 | Minimum inhibitory concentration ([4]; Serratia marcescens clinical strain 2): >128 | Minimum inhibitory concentration ([4]; Serratia marcescens clinical strain 3): >128 | Minimum inhibitory concentration ([4]; Serratia marcescens clinical strain 4): >128 | Minimum inhibitory concentration ([4]; Serratia marcescens clinical strain 5): >128 | Minimum inhibitory concentration ([5]; Proteus mirabilis clinical strain 1): >128 | Minimum inhibitory concentration ([5]; Proteus mirabilis clinical strain 2): >128 | Minimum inhibitory concentration ([5]; Proteus mirabilis clinical strain 3): >128 | Minimum inhibitory concentration ([5]; Proteus mirabilis clinical strain 4): >128 | Minimum inhibitory concentration ([5]; Proteus mirabilis clinical strain 5): >128 | Minimum inhibitory concentration ([6]; Enterobacter cloacae clinical strain 1): 64 | Minimum inhibitory concentration ([6]; Enterobacter cloacae clinical strain 2): 64 | Minimum inhibitory concentration ([6]; Enterobacter cloacae clinical strain 3): 128 | Minimum inhibitory concentration ([6]; Enterobacter cloacae clinical strain 4): 128 | Minimum inhibitory concentration ([6]; Enterobacter cloacae clinical strain 5): 32 | Minimum inhibitory concentration ([7]; Staphylococcus aureus clinical strain 1): 32 | Minimum inhibitory concentration ([7]; Staphylococcus aureus clinical strain 2): 32 | Minimum inhibitory concentration ([7]; Staphylococcus aureus clinical strain 3): 16 | Minimum inhibitory concentration ([7]; Staphylococcus aureus clinical strain 4): 16 | Minimum inhibitory concentration ([7]; Staphylococcus aureus clinical strain 5): 16 | Minimum inhibitory concentration ([8]; Streptococcus pneumoniae clinical strain 1): 128 | Minimum inhibitory concentration ([8]; Streptococcus pneumoniae clinical strain 2): 128 | Minimum inhibitory concentration ([8]; Streptococcus pneumoniae clinical strain 3): 128 | Minimum inhibitory concentration ([8]; Streptococcus pneumoniae clinical strain 4): 128 | Minimum inhibitory concentration ([8]; Streptococcus pneumoniae clinical strain 5): 64 | Minimum inhibitory concentration ([9]; Candida albicans clinical yeast strain 1): 16 | Minimum inhibitory concentration ([9]; Candida albicans clinical yeast strain 2): 16 | Minimum inhibitory concentration ([9]; Candida albicans clinical yeast strain 3): 16 | Minimum inhibitory concentration ([9]; Candida albicans clinical yeast strain 4): 16 | Minimum inhibitory concentration ([9]; Candida albicans clinical yeast strain 5): 32 | Minimum inhibitory concentration ([10]; C. glabrata clinical yeast strain 1): 16 | Minimum inhibitory concentration ([10]; C. glabrata clinical yeast strain 2): 16 | Minimum inhibitory concentration ([10]; C. glabrata clinical yeast strain 3): 8 | Minimum inhibitory concentration ([10]; C. glabrata clinical yeast strain 4): 64 | Minimum inhibitory concentration ([11]; C. parapsilosis clinical yeast strain 1): 64 | Minimum inhibitory concentration ([11]; C. parapsilosis clinical yeast strain 2): 64 | Minimum inhibitory concentration ([11]; C. parapsilosis clinical yeast strain 3): 32 | Minimum inhibitory concentration ([11]; C. parapsilosis clinical yeast strain 4): 16 | Minimum inhibitory concentration [12]: 16
